According to US9469645B2, “Compounds and compositions for the treatment of parasitic diseases” (Novartis AG, priority 2009, dated 2016):
pEC50: −log10 of the molar value.

What was measured:
[1] = test system: 3D7 P. falciparum strain; experiment: parasite proliferation assay in infected red blood cells (SYBR Green I); type: cell-based, Plasmodium falciparum; conditions: Plasmodium falciparum, 3D7, Erythrocyte, 3D7 strain; read-out: EC50 3D7 strain
Summary of the method: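 P. falciparum 3D7 grown in O+ human erythrocytes to 3–8% parasitemia and exposed to compounds. Proliferation read as the increase in parasite DNA. Detection used SYBR Green I in saponin/triton-X/EDTA lysis buffer, with overnight lysis at room temperature.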

[2] = test system: W2 strain; experiment: parasite proliferation assay in infected red blood cells (SYBR Green I), W2 strain; type: cell-based; conditions: Erythrocyte
Source text: Compounds of the invention can be assayed to measure their capacity to inhibit proliferation of parasitemia in infected red blood cells. The proliferation is quantified by the addition of SYBR Green I (INVITROGEN)® dye which has a high affinity for double stranded DNA.

Compound | pEC50 [1] | pEC50 [2]
Cc1ccc(Nc2c(-c3ccc(F)cc3)nc3n2CCN(C(=O)C[C@@H](O)c2ccccc2)C3)cc1 [Compound 135] | 7.30 | 7.48
Cc1ccc(Nc2c(-c3ccc(F)cc3)nc3n2CCN(C(=O)[C@H](O)c2ccccc2)C3)cc1 [Compound 137] | 8.00 | 7.92
Cc1ccc(Nc2c(-c3ccc(F)cc3)nc3n2CCN(C(=O)[C@@H](O)c2ccccc2)C3)cc1 [Compound 138] | 8.00 | 7.82
Cc1ccc(Nc2c(-c3ccc(F)cc3)nc3n2CCN(C(=O)C2(N)CCC2)C3)cc1 [Compound 139] | 6.80 | 6.78
Cc1ccc(Nc2c(-c3ccc(F)cc3)nc3n2CCN(C(=O)C2(N)CCCC2)C3)cc1 [Compound 140] | 7.05 | 6.89
Cc1ccc(Nc2c(-c3ccc(F)cc3)nc3n2CCN(C(=O)C2(N)CCCCC2)C3)cc1 [Compound 141] | 7.15 | 7.05
Cc1ccc(Nc2c(-c3ccc(F)cc3)nc3n2CCN(C(=O)C(N)CC(F)(F)F)C3)cc1 (centres unmarked) [Compound 142] | 7.10 | 6.92
CCC(C)(O)CC(=O)N1CCn2c(nc(-c3ccc(F)cc3)c2Nc2ccc(C)cc2)C1 (centres unmarked) [Compound 143] | 6.82 | 6.66
Cc1ccc(Nc2c(-c3ccc(F)cc3)nc3n2CCN(C(=O)C(N)C(F)(F)F)C3)cc1 (centres unmarked) [Compound 144] | 7.30 | 7.14
Cc1ccc(Nc2c(-c3ccc(F)cc3)nc3n2CCN(C(=O)[C@@H](O)CC2CCCCC2)C3)cc1 [Compound 145] | 7.05 | 7.17
Cc1ccc(Nc2c(-c3ccc(F)cc3)nc3n2CCN(C(=O)CNCc2ccccc2)C3)cc1 [Compound 146] | 7.70 | 7.85
CCCN(CCC)CC(=O)N1CCn2c(nc(-c3ccc(F)cc3)c2Nc2ccc(C)cc2)C1 [Compound 147] | 5.61 | 5.82
CCCN(CCC)[C@@H](C)C(=O)N1CCn2c(nc(-c3ccc(F)cc3)c2Nc2ccc(C)cc2)C1 [Compound 148] | 5.39 | 5.84
CN[C@@H](Cc1ccccc1)C(=O)N1CCn2c(nc(-c3ccc(F)cc3)c2Nc2ccc(C)cc2)C1 [Compound 149] | 7.70 | 7.96
Cc1ccc(Nc2c(-c3ccc(F)cc3)nc3n2CCN(C(=O)[C@H](CCC(=O)OCc2ccccc2)NC(=O)OC(C)(C)C)C3)cc1 [Compound 150] | 6.02 | 6.17
Cc1ccc(Nc2c(-c3ccc(F)cc3)nc3n2CCN(C(=O)[C@H](CC(=O)OCc2ccccc2)NC(=O)OC(C)(C)C)C3)cc1 [Compound 151] | 6.09 | 6.41
Cc1ccc(Nc2c(-c3ccc(F)cc3)nc3n2CCN(C(=O)[C@H](CCCCNC(=O)OC(C)(C)C)NC(=O)OCc2ccccc2)C3)cc1 [Compound 152] | 5.41 | 6.06
Cc1ccc(Nc2c(-c3ccc(F)cc3)nc3n2CCN(C(=O)CNC2CC2)C3)cc1 [Compound 153] | 7.22 | 7.49
CC(=O)NCCCCNCC(=O)N1CCn2c(nc(-c3ccc(F)cc3)c2Nc2ccc(C)cc2)C1 [Compound 154] | 5.37 | 5.47
Cc1ccc(Nc2c(-c3ccc(F)cc3)nc3n2CCN(CCN2CCn4c(nc(-c5ccc(F)cc5)c4Nc4ccc(C)cc4)C2)C3)cc1 [Compound 155] | 5.67 | 6.31

Compound | pEC50 [1] | pEC50 [2]
Cc1ccc(Nc2c(-c3ccc(F)cc3)nc3n2CCN(C(=O)[C@@H](N)CCCCN)C3)cc1 [Compound 156] | 5.74 | 6.34
Cc1ccc(Nc2c(-c3ccc(F)cc3)nc3n2CCN(C(=O)[C@@H](N)Cc2ccc(N)cc2)C3)cc1 [Compound 157] | 7.00 | 7.01
CCCC(=O)NCCCC[C@H](N)C(=O)N1CCn2c(nc(-c3ccc(F)cc3)c2Nc2ccc(C)cc2)C1 [Compound 158] | 5.12 | 5.32
Cc1ccc(Nc2c(-c3ccc(F)cc3)nc3n2CCN(C(=O)[C@@H](N)CCCCNC(=O)CCOCCOCCOCCOCCNC(=O)CCCCC2SCC4NC(=O)NC42)C3)cc1 (some centres unmarked) [Compound 159] | 5.24 | 5.54
CC(=O)Nc1ccc(C[C@H](N)C(=O)N2CCn3c(nc(-c4ccc(F)cc4)c3Nc3ccc(C)cc3)C2)cc1 [Compound 160] | 5.36 | 5.62
Cc1ccc(Nc2c(-c3ccc(F)cc3)nc3n2CCN(C(=O)CN(CCO)CCO)C3)cc1 [Compound 161] | 6.27 | 6.29
Cc1ccc(Nc2c(-c3ccc(F)cc3)nc3n2CCN(C(=O)[C@@H]2CC(=O)N2)C3)cc1 [Compound 162] | 5.75 | 5.86
Cc1ccc(Nc2c(-c3ccc(F)cc3)nc3n2CCN(C(=O)[C@@H](N)CO)C3)cc1 [Compound 163] | 7.70 | 7.59
Cc1ccc(Nc2c(-c3ccc(F)cc3)nc3n2CCN(C(=O)[C@H](CO)NC(=O)C(F)(F)F)C3)cc1 [Compound 164] | < 5.01 | 5.43
Cc1ccc(Nc2c(-c3ccc(F)cc3)nc3n2CCN(C(=O)c2cc(=O)[nH]c(=O)[nH]2)C3)cc1 [Compound 165] | < 4.99 | 5.33
Cc1ccc(Nc2c(-c3ccc(F)cc3)nc3n2CCN(C(=O)CNC(N)=O)C3)cc1 [Compound 166] | 5.54 | 5.65
Cc1ccc(Nc2c(-c3ccc(F)cc3)nc3n2CCN(C(=O)CNC(=N)N)C3)cc1 [Compound 167] | 6.74 | 6.84
Cc1ccc(Nc2c(-c3ccc(F)cc3)nc3n2CCN(C(=O)CNc2ccccc2)C3)cc1 [Compound 168] | 8.00 | 7.96
Cc1ccc(Nc2c(-c3ccc(F)cc3)nc3n2CCN(C(=O)[C@@H](N)C(C)(C)C)C3)cc1 [Compound 170] | 7.05 | 7.27
Cc1ccc(Nc2c(-c3ccc(F)cc3)nc3n2CCN(C(=O)C[C@@H](N)Cc2ccc(Br)cc2)C3)cc1 [Compound 171] | 6.77 | 6.67
Cc1ccc(Nc2c(-c3ccc(F)cc3)nc3n2CCN(C(=O)C[C@@H](N)Cc2cc(F)c(F)cc2F)C3)cc1 [Compound 172] | 7.00 | 7.06
Cc1ccc(Nc2c(-c3ccc(F)cc3)nc3n2CCN(C(=O)C(C)c2ccc(Cl)cc2)C3)cc1 (centres unmarked) [Compound 173] | 6.85 | 6.88
Cc1ccc(Nc2c(-c3ccc(F)cc3)nc3n2CCN(C(=O)C(C)(C)c2ccc(Cl)cc2)C3)cc1 [Compound 174] | 5.22 | 5.83
Cc1ccc(Nc2c(-c3ccc(F)cc3)nc3n2CCN(C(=O)[C@@H](C)c2ccccc2)C3)cc1 [Compound 175] | 7.10 | 6.98
Cc1ccc(Nc2c(-c3ccc(F)cc3)nc3n2CCN(C(=O)[C@@H]2Cc4[nH]cnc4CN2)C3)cc1 [Compound 176] | 5.56 | 5.75

Compound | pEC50 [1] | pEC50 [2]
Cc1ccc(Nc2c(-c3ccc(F)cc3)nc3n2CCN(C(=O)[C@H](Cc2ccccc2)N(C)C)C3)cc1 [Compound 177] | 6.37 | 6.37
Cc1ccc(Nc2c(-c3ccc(F)cc3)nc3n2CCN(C(=O)CN2CCC(CCN)CC2)C3)cc1 [Compound 178] | 5.52 | 5.48
Cc1ccc(Nc2c(-c3ccc(F)cc3)nc3n2CCN(Cc2ccc(S(C)(=O)=O)cc2)C3)cc1 [Compound 179] | 5.32 | 5.97
Cc1ccc(Nc2c(-c3ccc(F)cc3)nc3n2CCN(Cc2ccc(N4CCOCC4)cc2)C3)cc1 [Compound 180] | 6.14 | 6.22
CCN(CC)c1ccc(CN2CCn3c(nc(-c4ccc(F)cc4)c3Nc3ccc(C)cc3)C2)cc1 [Compound 182] | 5.86 | 5.97
Cc1ccc(Nc2c(-c3ccc(F)cc3)nc3n2CCN(Cc2ccc(OCCCN(C)C)cc2)C3)cc1 [Compound 183] | 5.72 | 5.87
Cc1ccc(Nc2c(-c3ccc(F)cc3)nc3n2CCN(Cc2ccc(-c4ccncc4)cc2)C3)cc1 [Compound 184] | 5.44 | 6.07
CCC(=O)Nc1ccc(C[C@H](NC(=O)OC(C)(C)C)C(=O)N2CCn3c(nc(-c4ccc(F)cc4)c3Nc3ccc(C)cc3)C2)cc1 [Compound 185] | 6.46 | 6.87
CCCNC(=O)C[C@H](NC(=O)OC(C)(C)C)C(=O)N1CCn2c(nc(-c3ccc(F)cc3)c2Nc2ccc(C)cc2)C1 [Compound 186] | 5.25 | 5.59
CCC(=O)Nc1ccc(C[C@H](N)C(=O)N2CCn3c(nc(-c4ccc(F)cc4)c3Nc3ccc(C)cc3)C2)cc1 [Compound 187] | 5.18 | 5.45
CCCNC(=O)CC[C@H](N)C(=O)N1CCn2c(nc(-c3ccc(F)cc3)c2Nc2ccc(C)cc2)C1 [Compound 188] | 6.10 | 5.96
CCCNC(=O)C[C@H](N)C(=O)N1CCn2c(nc(-c3ccc(F)cc3)c2Nc2ccc(C)cc2)C1 [Compound 189] | 6.43 | 6.41
Cc1ccc(Nc2c(-c3ccc(F)cc3)nc3n2CCN(C(=O)CC(N)C(F)(F)F)C3)cc1 (centres unmarked) [Compound 190] | 6.03 | 5.97
Fc1ccc(Nc2c(-c3cccc(F)c3)nc3n2CCNC3)cc1 [Compound 191] | 6.77 | 6.82
Fc1ccc(-c2nc3n(c2Nc2ccc(Cl)c(F)c2)CCNC3)cc1 [Compound 192] | 6.96 | 7.02
Cc1ccc(Nc2c(-c3ccc(F)cc3)nc3n2CCN(C(=O)[C@H]2CCC[C@H]2N)C3)cc1 [Compound 193] | 7.05 | 7.12
N[C@H](C(=O)N1CCn2c(nc(-c3ccc(F)cc3)c2Nc2ccc(F)cc2)C1)C(F)(F)F [Compound 195] | 7.70 | 7.70
N[C@@H](C(=O)N1CCn2c(nc(-c3ccc(F)cc3)c2Nc2ccc(F)cc2)C1)C(F)(F)F [Compound 196] | 6.49 | 6.46
